Patent publication US20230085307A1, “PYRIDAZINONE COMPOUND AND HERBICIDE” (NISSAN CHEMICAL CORPORATION, priority 2019, published 2023)

Columns and labels:
late watergrass [1] = assay: Test Example 1: herbicidal activity, application before weed generation under submerged conditions (Table 16, symbol A); format: in vivo, late watergrass (Echinochloa oryzicola); details: 320 g/ha applied herbicide
Procedure, shortened: (§1)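 Alluvial soil was flooded to 4 cm depth, weed seeds were sown mixed and 2.5-leaf rice seedlings were transplanted. On sowing day, the compound's emulsion, diluted in water to a set dose, was applied to the water surface. Plants grew at 25–30 °C and were scored 0–5 after three weeks.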

Japanese bulrush [2] = assay: Test Example 1: herbicidal activity, application before weed generation under submerged conditions (Table 16, symbol B); format: in vivo, Japanese bulrush (Schoenoplectus juncoides); details: 320 g/ha applied herbicide
Procedure, shortened: as §1

oval-leafed pondweed [3] = assay: Test Example 1: herbicidal activity, application before weed generation under submerged conditions (Table 16, symbol C); format: in vivo, oval-leafed pondweed (Monochoria vaginalis); details: 320 g/ha applied herbicide
Procedure, shortened: as §1

late watergrass [4] = assay: Test Example 2: herbicidal activity, application during weed generation under submerged conditions (Table 17, symbol A); format: in vivo, late watergrass (Echinochloa oryzicola); details: AAH 320 g/ha; application during weed generation, submerged conditions
Procedure, shortened: (§2)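 3-wk visual-criteria score after one water-surface dose. Emulsion formulation, water-diluted to set rate; applied at 1–2 leaf stage; alluvial soil, 4 cm standing water; seeds co-sown; greenhouse 25–30° C.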

Japanese bulrush [5] = assay: Test Example 2: herbicidal activity, application during weed generation under submerged conditions (Table 17, symbol B); format: in vivo, Japanese bulrush (Schoenoplectus juncoides); details: AAH 320 g/ha; application during weed generation, submerged conditions
Procedure, shortened: as §2

oval-leafed pondweed [6] = assay: Test Example 2: herbicidal activity, application during weed generation under submerged conditions (Table 17, symbol C); format: in vivo, oval-leafed pondweed (Monochoria vaginalis); details: AAH 320 g/ha; application during weed generation, submerged conditions
Procedure, shortened: as §2

barnyard grass [7] = assay: Test Example 3: herbicidal effect by foliage application, Wagner pot (Table 18, symbol H); format: in vivo, barnyard grass (Echinochloa crus-galli)
Procedure, shortened: (§3)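 Plants were sown in alluvial soil held under 0.1–0.5 cm standing water and grown 14 days in a greenhouse at 25–30 °C. An emulsifiable formulation, water-diluted to the set dose, was then sprayed onto the foliage, and effects were scored three weeks later using previously defined criteria.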

Chinese sprangletop = assay: Test Example 3: herbicidal effect by foliage application, Wagner pot (Table 18, symbol D); format: in vivo, chinese sprangletop (Leptochloa chinensis)
Procedure, shortened: as §3

rice flat sedge = assay: Test Example 3: herbicidal effect by foliage application, Wagner pot (Table 18, symbol E); format: in vivo, rice flat sedge (Cyperus iria)
Procedure, shortened: as §3

southern crabgrass [8] = assay: Test Example 4: herbicidal effect by soil treatment (Table 19, symbol F); format: in vivo, southern crabgrass (Digitaria ciliaris); details: amount of applied herbicide 320 g/ha
Procedure, shortened: (§4)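 In this soil treatment, the formulated compound reached the seeds only through the soil: seeds were buried about 1.5 cm deep in sterilized diluvial soil, then the diluted emulsion was sprayed over the surface. After three weeks at 25° C. to 30° C. in a greenhouse, effects were graded on criteria from an earlier test.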

green foxtail [9] = assay: Test Example 4: herbicidal effect by soil treatment (Table 19, symbol G); format: in vivo, green foxtail (Setaria viridis); details: amount of applied herbicide 320 g/ha
Procedure, shortened: as §4

barnyard grass [10] = assay: Test Example 4: herbicidal effect by soil treatment (Table 19, symbol H); format: in vivo, barnyard grass (Echinochloa crus-galli); details: amount of applied herbicide 320 g/ha
Procedure, shortened: as §4

wild oat [11] = assay: Test Example 4: herbicidal effect by soil treatment (Table 19, symbol I); format: in vivo, wild oat (Avena fatua); details: amount of applied herbicide 320 g/ha
Procedure, shortened: as §4

blackgrass [12] = assay: Test Example 4: herbicidal effect by soil treatment (Table 19, symbol J); format: in vivo, blackgrass (Alopecurus myosuroides); details: amount of applied herbicide 320 g/ha
Procedure, shortened: as §4

Italian ryegrass [13] = assay: Test Example 4: herbicidal effect by soil treatment (Table 19, symbol K); format: in vivo, Italian ryegrass (Lolium multiflorum); details: amount of applied herbicide 320 g/ha
Procedure, shortened: as §4

windgrass [14] = assay: Test Example 4: herbicidal effect by soil treatment (Table 19, symbol L); format: in vivo, windgrass (Apera spica-venti); details: amount of applied herbicide 320 g/ha
Procedure, shortened: as §4

velvetleaf [15] = assay: Test Example 4: herbicidal effect by soil treatment (Table 19, symbol M); format: in vivo, velvetleaf (Abutilon theophrasti); details: amount of applied herbicide 320 g/ha
Procedure, shortened: as §4

redroot pigweed = assay: Test Example 4: herbicidal effect by soil treatment (Table 19, symbol N); format: in vivo, redroot pigweed (Amaranthus retroflexus); details: amount of applied herbicide 320 g/ha
Procedure, shortened: as §4

lambsquarters [16] = assay: Test Example 4: herbicidal effect by soil treatment (Table 19, symbol O); format: in vivo, lambsquarters (Chenopodium album); details: amount of applied herbicide 320 g/ha
Procedure, shortened: as §4

chickweed = assay: Test Example 4: herbicidal effect by soil treatment (Table 19, symbol P); format: in vivo, common chickweed (Stellaria media); details: amount of applied herbicide 320 g/ha
Procedure, shortened: as §4

persian speedwell [17] = assay: Test Example 4: herbicidal effect by soil treatment (Table 19, symbol R); format: in vivo, Persian speedwell (Veronica persica); details: amount of applied herbicide 320 g/ha
Procedure, shortened: as §4

false cleavers = assay: Test Example 4: herbicidal effect by soil treatment (Table 19, symbol Q); format: in vivo, false cleavers (Galium spurium); details: amount of applied herbicide 320 g/ha
Text: [Test Example 4] Herbicidal Effect Test by Soil Treatment
Sterilized diluvial soil was placed in a plastic box having a length of 21 cm, a width of 13 cm, and a depth of 7 cm. The seeds of each of southern crabgrass, green foxtail, barnyard grass, wild oat, blackgrass, Italian ryegrass, windgrass, velvetleaf, redroot pigweed, lambsquarters, chickweed, false cleavers, persian speedwell, corn, soybean, rice, wheat, beet, and rapeseed were sowed in a spot-like manner and covered with the soil having a thickness of about 1.5 cm. Subsequently, the emulsion agent of the compound of the present invention prepared according to Formulation Example 2 was diluted with water so as to achieve a predetermined herbicide amount, and the diluted emulsion agent was uniformly applied to the surface of the soil with a small-sized spray. The plastic box was placed in a greenhouse at 25° C. to 30° C. for growth of the plants. Three weeks after the herbicide application, the effect of the herbicide on each plant was evaluated according to the criteria of Test Example 1.

southern crabgrass [18] = assay: Test Example 5: herbicidal effect by foliage application, plastic box (Table 20, symbol F); format: in vivo, southern crabgrass (Digitaria ciliaris); details: foliage application, 320 g/ha, three weeks after application
Procedure, shortened: (§5)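 Plants were sown into sterilized diluvial soil under about 1.5 cm cover and kept in a greenhouse at 25° C. to 30° C. Fourteen days on, foliage received an even spray of the diluted emulsion. Herbicidal or crop effect was judged three weeks afterwards.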

green foxtail [19] = assay: Test Example 5: herbicidal effect by foliage application, plastic box (Table 20, symbol G); format: in vivo, green foxtail (Setaria viridis); details: foliage application, 320 g/ha, three weeks after application
Procedure, shortened: as §5

barnyard grass [20] = assay: Test Example 5: herbicidal effect by foliage application, plastic box (Table 20, symbol H); format: in vivo, barnyard grass (Echinochloa crus-galli); details: foliage application, 320 g/ha, three weeks after application
Procedure, shortened: as §5

wild oat [21] = assay: Test Example 5: herbicidal effect by foliage application, plastic box (Table 20, symbol I); format: in vivo, wild oat (Avena fatua); details: foliage application, 320 g/ha, three weeks after application
Procedure, shortened: as §5

blackgrass [22] = assay: Test Example 5: herbicidal effect by foliage application, plastic box (Table 20, symbol J); format: in vivo, blackgrass (Alopecurus myosuroides); details: foliage application, 320 g/ha, three weeks after application
Procedure, shortened: as §5

Italian ryegrass [23] = assay: Test Example 5: herbicidal effect by foliage application, plastic box (Table 20, symbol K); format: in vivo, Italian ryegrass (Lolium multiflorum); details: foliage application, 320 g/ha, three weeks after application
Procedure, shortened: as §5

windgrass [24] = assay: Test Example 5: herbicidal effect by foliage application, plastic box (Table 20, symbol L); format: in vivo, windgrass (Apera spica-venti); details: foliage application, 320 g/ha, three weeks after application
Procedure, shortened: as §5

velvetleaf [25] = assay: Test Example 5: herbicidal effect by foliage application, plastic box (Table 20, symbol M); format: in vivo, velvetleaf (Abutilon theophrasti); details: foliage application, 320 g/ha, three weeks after application
Procedure, shortened: as §5

lambsquarters [26] = assay: Test Example 5: herbicidal effect by foliage application, plastic box (Table 20, symbol O); format: in vivo, lambsquarters (Chenopodium album); details: foliage application, 320 g/ha, three weeks after application
Procedure, shortened: as §5

persian speedwell [27] = assay: Test Example 5: herbicidal effect by foliage application, plastic box (Table 20, symbol R); format: in vivo, Persian speedwell (Veronica persica); details: foliage application, 320 g/ha, three weeks after application
Procedure, shortened: as §5

[28] = amount of applied herbicide 320 g/ha

CCCC(=O)Oc1c(C)nn(C)c(=O)c1-c1c(-c2ccc(C(F)(F)F)cc2F)sc2ccc(F)cc12 [2-355]
Herbicidal effect on A: late watergrass (grade 0-5) (late watergrass [1]): 4 (Herbicidal rate of 70% or more and less than 90%) | Herbicidal effect on B: Japanese bulrush (grade 0-5) (Japanese bulrush [2]): 3 (Herbicidal rate of 40% or more and less than 70%) | Herbicidal effect on C: oval-leafed pondweed (grade 0-5) (oval-leafed pondweed [3]): 0 (Herbicidal rate of 5% or less (almost no effect)) | herbicidal effect rating, A: late watergrass (late watergrass [4]): 3 (Herbicidal rate of 40% or more and less than 70%) | herbicidal effect rating, B: Japanese bulrush (Japanese bulrush [5]): 3 (Herbicidal rate of 40% or more and less than 70%) | herbicidal effect rating, C: oval-leafed pondweed (oval-leafed pondweed [6]): 3 (Herbicidal rate of 40% or more and less than 70%) | herbicidal effect on H: barnyard grass (barnyard grass [7]; [28]): 5 (Herbicidal rate of 90% or more (almost completely withered)) | herbicidal effect on D: Chinese sprangletop (Chinese sprangletop; [28]): 5 (Herbicidal rate of 90% or more (almost completely withered)) | herbicidal effect on E: rice flat sedge (rice flat sedge; [28]): 5 (Herbicidal rate of 90% or more (almost completely withered)) | herbicidal effect, F: southern crabgrass (southern crabgrass [8]): 0 (Herbicidal rate of 5% or less (almost no effect)) | herbicidal effect, G: green foxtail (green foxtail [9]): 0 (Herbicidal rate of 5% or less (almost no effect)) | herbicidal effect, H: barnyard grass (barnyard grass [10]): 0 (Herbicidal rate of 5% or less (almost no effect)) | herbicidal effect, I: wild oat (wild oat [11]): 0 (Herbicidal rate of 5% or less (almost no effect)) | herbicidal effect, J: blackgrass (blackgrass [12]): 0 (Herbicidal rate of 5% or less (almost no effect)) | herbicidal effect, K: Italian ryegrass (Italian ryegrass [13]): 4 (Herbicidal rate of 70% or more and less than 90%) | herbicidal effect, L: windgrass (windgrass [14]): 3 (Herbicidal rate of 40% or more and less than 70%) | herbicidal effect, M: velvetleaf (velvetleaf [15]): 0 (Herbicidal rate of 5% or less (almost no effect)) | herbicidal effect, N: redroot pigweed (redroot pigweed): 0 (Herbicidal rate of 5% or less (almost no effect)) | herbicidal effect, O: lambsquarters (lambsquarters [16]): 3 (Herbicidal rate of 40% or more and less than 70%) | herbicidal effect, P: chickweed (chickweed): 3 (Herbicidal rate of 40% or more and less than 70%) | herbicidal effect, R: persian speedwell (persian speedwell [17]): 3 (Herbicidal rate of 40% or more and less than 70%)

Cc1nn(C)c(=O)c(-c2c(-c3ccc(Cl)cc3)sc3cc(F)c(F)cc23)c1O [5-082]
herbicidal effect on barnyard grass (H) (barnyard grass [7]; 320 g/ha): 5 (Herbicidal rate of 90% or more (almost completely withered)) | herbicidal effect on Chinese sprangletop (D) (Chinese sprangletop; 320 g/ha): 4 (Herbicidal rate of 70% or more and less than 90%) | herbicidal effect on rice flat sedge (E) (rice flat sedge; 320 g/ha): 4 (Herbicidal rate of 70% or more and less than 90%) | F: southern crabgrass, herbicidal effect grade (southern crabgrass [8]): 0 (Herbicidal rate of 5% or less (almost no effect)) | G: green foxtail, herbicidal effect grade (green foxtail [9]): 1 (Herbicidal rate of 5% or more and less than 20%) | H: barnyard grass, herbicidal effect grade (barnyard grass [10]): 0 (Herbicidal rate of 5% or less (almost no effect)) | I: wild oat, herbicidal effect grade (wild oat [11]): 0 (Herbicidal rate of 5% or less (almost no effect)) | J: blackgrass, herbicidal effect grade (blackgrass [12]): 0 (Herbicidal rate of 5% or less (almost no effect)) | K: Italian ryegrass, herbicidal effect grade (Italian ryegrass [13]): 4 (Herbicidal rate of 70% or more and less than 90%) | L: windgrass, herbicidal effect grade (windgrass [14]): 4 (Herbicidal rate of 70% or more and less than 90%) | M: velvetleaf, herbicidal effect grade (velvetleaf [15]): 0 (Herbicidal rate of 5% or less (almost no effect)) | N: redroot pigweed, herbicidal effect grade (redroot pigweed): 4 (Herbicidal rate of 70% or more and less than 90%) | O: lambsquarters, herbicidal effect grade (lambsquarters [16]): 3 (Herbicidal rate of 40% or more and less than 70%) | Q: false cleavers, herbicidal effect grade (false cleavers): 3 (Herbicidal rate of 40% or more and less than 70%) | herbicidal effect on southern crabgrass (F) (southern crabgrass [18]): 3 (Herbicidal rate of 40% or more and less than 70%) | herbicidal effect on green foxtail (G) (green foxtail [19]): 3 (Herbicidal rate of 40% or more and less than 70%) | herbicidal effect on barnyard grass (H) (barnyard grass [20]): 4 (Herbicidal rate of 70% or more and less than 90%) | herbicidal effect on wild oat (I) (wild oat [21]): 3 (Herbicidal rate of 40% or more and less than 70%) | herbicidal effect on blackgrass (J) (blackgrass [22]): 3 (Herbicidal rate of 40% or more and less than 70%) | herbicidal effect on Italian ryegrass (K) (Italian ryegrass [23]): 5 (Herbicidal rate of 90% or more (almost completely withered)) | herbicidal effect on windgrass (L) (windgrass [24]): 5 (Herbicidal rate of 90% or more (almost completely withered)) | herbicidal effect on velvetleaf (M) (velvetleaf [25]): 5 (Herbicidal rate of 90% or more (almost completely withered)) | herbicidal effect on lambsquarters (O) (lambsquarters [26]): 5 (Herbicidal rate of 90% or more (almost completely withered)) | herbicidal effect on persian speedwell (R) (persian speedwell [27]): 5 (Herbicidal rate of 90% or more (almost completely withered))
